Experimental data from patent publication US20120295349A1, “MAMMAL DEDICATED CELL LINE FROM HUMAN HEPATOCELLULAR CARCINOMA CELL” (Institute of Nuclear Energy Research Atomic Energy Council, …, priority 2009, published 2012).

How the values were obtained:
Type in all cases: cell-based, human
[1] = system: HepG2 NF-κB/Luc/sr39tk cells; experiment: Cytotoxic effect of GCV on HepG2 NF-κB/Luc/sr39tk cells (WST-1 cell survival); conditions: GCV 0.001-500 μM, 96 h
Procedure: HepG2 NF-κB/luc/sr39tk was cultured at 3000 cells/well in 96 well plate format to attach the cells onto the plate, then drug-treated for 48 h with different concentrations of GCV at 0.001, 0.01, 0.1, 1, 50, 100 and 500 μM respectively, and then treated with fresh culture media containing GCV drug, and after 96 h of experiment, the culture media containing GCV drug was removed, then chromogenic reaction was carried out with WST-1 at 37° C. for 2 h, and finally analyzed by enzyme-linked immunosorbent assay (ELISA) at wavelengths of 450 nm and 620 nm respectively and plotted to obtain cell survival rate for calculation of cytotoxic effect of drug.

[2] = system: HepG2 NF-κB/Luc cells; experiment: 131I-FIAU uptake experiment in HepG2 NF-κB/Luc cells; conditions: reacted 2 h
Procedure: (§1) This experiment is provided to analyze uptake of 131I-FIAU drug by HepG2 NF-κB/Luc/sr39tk transformed cells. HepG2 NF-κB/Luc/sr39tk transformed cells were cultured overnight in a 6-well plate at 1×10^6 cells/well to attach the cells onto the plate. Then, 1 ml/well of labeled ^131I-FIAU was added into the cells and reacted for 2 h, and then the cells was washed with ice-cold PBS to quench the drug reaction, and detected for radioactivity. FIG. 4 is uptake effect of ^131I-FIAU in HepG2 NF-κB/Luc/sr39tk cell, in which X axis represents different transformed cell line; and Y axis is uptake amount of ^131I-FIAU per 0.1 million cells.

[3] = system: HepG2 cells; experiment: 131I-FIAU uptake experiment in HepG2 cells; conditions: reacted 2 h
Procedure: as §1

[4] = system: HepG2 NF-κB/Luc/sr39tk cells; experiment: 131I-FIAU uptake experiment in co-transformed HepG2 NF-κB/Luc/sr39tk cells; conditions: reacted 2 h
Procedure: as §1

Compound | cytotoxic effect (cell survival rate) compared with control group (HepG2) ([1]; 1—18 cell line) | cytotoxic effect (cell survival rate) compared with control group (HepG2) ([1]; 2—24 cell line) | uptake efficiency for 131I-FIAU [2] | uptake efficiency for 131I-FIAU [3] | uptake amount of 131I-FIAU per 0.1 million cells ([4]; 1—17 cell line) | uptake amount of 131I-FIAU per 0.1 million cells ([4]; 1—18 cell line) | uptake amount of 131I-FIAU per 0.1 million cells ([4]; 1—34 cell line) | uptake amount of 131I-FIAU per 0.1 million cells ([4]; 2—24 cell line) | uptake amount of 131I-FIAU per 0.1 million cells ([4]; 2—27 cell line)
Nc1nc(O)c2ncn(COC(CO)CO)c2n1 [GCV, ganciclovir] | obvious cytotoxic effect | obvious cytotoxic effect |  |  |  |  |  |  | 
O=c1[nH]c(=O)n([C@@H]2O[C@H](CO)[C@@H](O)[C@@H]2F)cc1[131I] [131I-FIAU] |  |  | very low uptake efficiency | very low uptake efficiency | 20.1±0.41% | 41.5±1.00% | 27.2±1.07% | 22.9±0.68% | 12.9±0.45%
